From patent US20060142323A1, “Dual binding site acetylcholinesterase inhibitors for the treatment of alzheimer's disease” (priority 2002, published 2006)

How the values were obtained:
[1] = target: T1, AChE from human erythrocytes (Homo sapiens, UniProt P22303); experiment: AChE inhibition (from human erythrocytes), Ellman method; format: biochemical; settings: 10 min preincubation at 30° C., 400 μM acetylthiocholine iodide, pH 8
T1 construct: 0.02 unit/ml AChE (Sigma Chemical Co. from human erythrocytes); purchased Sigma Chemical Co; host or cells: human erythrocytes
Experimental: AChE Inhibition (from Human Erythrocytes)
The method of Ellman et al. (Ellman, G. L.; Courtney, K. D.; Andres, B.; Featherstone, R. M. Biochem. Pharmacol. 1961, 7, 88-95) was followed. The assay solution consisted of 0.1 M phosphate buffer pH 8, 200 μM 5,5′-dithiobis(2-nitrobenzoic acid) (DTNB, Ellan's reagent), 0.02 unit/ml AChE (Sigma Chemical Co. from human erythrocytes), and 400 μM acetylthiocholine iodide as the substrate of the enzymatic reaction. The compounds tested were added to the assay solution and pre incubated with the enzyme for 10 min at 30° C. After that period, the substrate was added. The absorbance changes at 412 nm were recorded for 5 min with a Perkin-Elmer 550 SE UV/VIS spectrometer, the reaction rates were compared, and the percent inhibition due to the presence of test compounds was calculated.

β-amyloid-AChE complex = target: T2, β-amyloid-AChE complex (Homo sapiens, UniProt P22303); experiment: Inhibition of β-amyloid aggregation (AChE-Aβ complex, Congo Red binding); format: biochemical; settings: compound at its AChE IC50, Aβ1-40 0.1 mM, Aβ-AChE 200:1, 48 hours
T2 construct: purchased Sigma-Aldrich
Experimental: Inhibition of β-Amyloid Aggregation:
Stock solutions of Aβ1-40 at 3.5 mM were prepared in DMSO. The amount of peptide used in the assays was 0.1 mM. Human recombinant AChE (Sigma-Aldrich) was used at a molar ratio Aβ-AChE 200:1. For the aggregation studies the peptide was mixed with the appropriate amount of AChE in PBS pH 7.4 and stirred for 48 hours in -a microtiter plate at room temperature. The fibrils obtained were characterized by Congo Red (CR) binding.
For the inhibition of β-amyloid aggregation, the compounds tested were used at the IC50 defined in the previous paragraph of the biological evaluation. Propidium iodide 50 μM for comparison.

AChE from SK—N—SH cells = target: T3, AChE from SK—N—SH cells (Homo sapiens, UniProt P22303); experiment: Neuronal AChE activity, enzyme preparation from SK-N-SH cells; format: biochemical
T3 construct: The assay solution consisted of AChE from neuronal cells; endogenous in cells; host or cells: SK-N-SH human neuroblastoma cells
Experimental: (§1) Acetylcholinesterase (AChE) enzyme preparations were obtained from SH—SY5Y, SK—N—SH and N2A cells.
(§2) CELL CULTURE: The human neuroblastoma cell line SH—SY5Y was cultured in minimum essential medium, Han's F12 medium, supplemented with 10% fetal bovine serum and 1% penicillin/streptomycin, and grown in a 5% CO2 humidified incubator at 37° C. […] The rat neuroblastoma cell line N2A was cultured in DULBECCO'S MOD EAGLE medium, supplemented with 10% fetal bovine serum and 1% penicillin/streptomycin, and grown in a 5% CO2 humidified incubator at 37° C. The cells were plated at 250 10^3 cells for each reaction, at least, 48 hours before the AChE activity measure. Cells were washed and harvested in 0.1 M sodium phosphate buffer pH 8, at 4° C.
(§3) The assay solution consisted of AChE from neuronal cells, 0.1 M phosphate buffer pH 8, 0.3 mM 5,5′-dithiobis (2-nitrobenzoic acid) (DTNB, Ellman-s reagent), and 0.5 mM acetylthiocholine iodide as the substrate of the enzymatic reaction. […] The reaction rate was calculated with, at least, triplicate measurements, and the percent inhibition due to the presence of test compound was calculated relative to the compound-free control.

AChE from SH—SY5Y cells = target: T4, AChE from SH—SY5Y cells (Homo sapiens, UniProt P22303); experiment: Neuronal AChE activity, enzyme preparation from SH-SY5Y cells; format: biochemical; settings: pH 8, 0.5 mM acetylthiocholine iodide, read-out: IC50 AChE SH-SY5Y (human neuroblastoma)
T4 construct: The assay solution consisted of AChE from neuronal cells; endogenous in cells; host or cells: SH-SY5Y human neuroblastoma cells
Experimental: as §1, §2, §3

AChE from N2A cells = target: T5, AChE from N2A cells (Mus musculus, UniProt P21836); experiment: Neuronal AChE activity, enzyme preparation from N2A cells; format: biochemical; settings: pH 8, 0.5 mM acetylthiocholine iodide, read-out: IC50 AChE N2A (rat neuroblastoma)
T5 construct: The assay solution consisted of AChE from neuronal cells; endogenous in cells; host or cells: N2A neuroblastoma cells
T5 sequence (P21836 32-614): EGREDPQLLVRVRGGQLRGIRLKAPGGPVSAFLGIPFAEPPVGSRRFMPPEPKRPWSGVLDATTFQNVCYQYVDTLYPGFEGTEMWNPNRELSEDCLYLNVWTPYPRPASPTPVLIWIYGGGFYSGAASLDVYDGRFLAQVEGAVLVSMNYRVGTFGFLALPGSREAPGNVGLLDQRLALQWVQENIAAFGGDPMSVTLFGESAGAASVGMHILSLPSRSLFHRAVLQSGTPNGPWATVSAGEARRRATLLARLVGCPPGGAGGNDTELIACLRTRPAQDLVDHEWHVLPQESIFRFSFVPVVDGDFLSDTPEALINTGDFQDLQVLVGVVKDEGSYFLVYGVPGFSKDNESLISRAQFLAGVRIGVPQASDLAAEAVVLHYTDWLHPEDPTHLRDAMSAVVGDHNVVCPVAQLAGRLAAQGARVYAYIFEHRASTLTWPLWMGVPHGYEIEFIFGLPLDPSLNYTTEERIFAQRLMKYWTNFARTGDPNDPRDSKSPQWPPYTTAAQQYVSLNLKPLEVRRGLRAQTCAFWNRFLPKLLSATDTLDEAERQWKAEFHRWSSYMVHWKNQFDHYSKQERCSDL
Experimental: as §1, §2, §3

[2] = system: calcium channels in SH—SY5Y cells; experiment: Effects on calcium channels (K+ stimulated calcium entry, Fluo-4); format: cell-based, human; settings: 60 mM K+, 10 min preincubation
Experimental: Effects on Calcium Channels
We have studied if these compounds are able to block calcium channels. Calcium entry in SH—SY5Y cells was stimulated with 60 mM K^+ in 96-well plates. Cells were plated at 5·10^4 for each well, at least, 48 hours before the experiment. For measurement of intracellular calcium, SH—SY5Y were washed with Krebs/HEPES buffer, pH 7.4. and cells were loaded with the calcium indicator dye Fluo-4 (Molecular Probes) for 40 min at 37° C. followed by 15 min post incubation at room temperature. Intracellular calcium was measured fluorometrically in a Fluostar optima plate reader (BMG), with excitation wavelengths set at 485 nm and emission at 520 nm. The tested compounds were preincubated with the cells for 10 minutes before the depolarization with K^+.

[3] = target: T6, AChE from bovine erythrocytes (Bos taurus, UniProt P23795); experiment: Acetylcholinesterase (AChE) inhibition (from bovine erythrocytes), Ellman method at 30° C., Digiscan 340T; format: biochemical; settings: bovine erythrocytes AChE, 30° C., 5 min preincubation; read-out: IC50 AchE
T6 construct: 0.02 units AChE (Sigma Chemical Co. from bovine erythrocytes); purchased Sigma Chemical Co; host or cells: bovine erythrocytes
T6 sequence (P23795 31-614 isoform P23795-2 limits assumed): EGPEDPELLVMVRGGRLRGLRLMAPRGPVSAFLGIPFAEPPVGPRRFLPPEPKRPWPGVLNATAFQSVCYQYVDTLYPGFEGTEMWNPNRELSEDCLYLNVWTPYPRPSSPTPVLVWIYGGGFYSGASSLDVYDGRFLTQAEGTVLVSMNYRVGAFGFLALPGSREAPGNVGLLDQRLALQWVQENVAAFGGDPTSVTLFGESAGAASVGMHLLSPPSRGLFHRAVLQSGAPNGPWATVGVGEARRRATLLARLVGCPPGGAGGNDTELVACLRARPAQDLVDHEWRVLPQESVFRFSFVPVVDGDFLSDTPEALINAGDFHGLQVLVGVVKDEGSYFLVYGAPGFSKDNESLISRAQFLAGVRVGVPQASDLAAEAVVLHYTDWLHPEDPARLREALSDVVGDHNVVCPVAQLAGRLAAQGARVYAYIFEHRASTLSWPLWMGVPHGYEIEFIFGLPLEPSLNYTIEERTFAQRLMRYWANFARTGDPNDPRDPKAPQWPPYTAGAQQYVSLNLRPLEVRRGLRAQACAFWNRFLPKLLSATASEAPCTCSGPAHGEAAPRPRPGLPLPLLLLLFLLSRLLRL
Experimental: Acetylcholinesterase (AChE) Inhibition (from Bovine Erythrocytes)
AChE inhibitory activity was evaluated at 30° C. by the colorimetric method reported by Ellman [Ellman, G. L.; Courtney, K. D.; Andres, B.; Featherstone, R. M. Biochem. Pharmacol. 1961, 7, 88-95]. The assay solution consisted of 0.1 M phosphate buffer pH 8, 0.3 mM 5,5′-dithiobis (2-nitrobenzoic acid) (DTNB, Ellman's reagent), 0.02 units AChE (Sigma Chemical Co. from bovine erythrocytes), and 0.5 mM acetylthiocholine iodide as the substrate of the enzymatic reaction. The compounds tested were added to the assay solution and preincubated with the enzyme for 5 min at 30° C. After that period, the substrate was added. The absorbance changes at 405 nm were recorded for 5 min with a microplate reader Digiscan 340T, the reaction rates were compared, and the percent inhibition due to the presence of test compounds was calculated. The reaction rate was calculated with, at least, triplicate measurements, and the percent inhibition due to the presence of test compound was calculated relative to the compound-free control.

AChE peripheral site = AChE peripheral site (Homo sapiens, UniProt P22303); experiment: Propidium competition (fluorescence); format: binding; settings: 20 μM propidium iodide, AChE incubated at least 6 hours with compound
Experimental: Fluorescence was measured in a Fluostar optima plate reader (BMG). Measurements were carried out in 100 μl solution volume, in 96-well plates. The buffer used was 1 mM Tris/HCl, pH 8.0. […] AChE was incubated, at least 6 hours, with the molecules at different concentrations. 20 μM propidium iodide was added 10 min before fluorescence measurement.

[4] = system: human neuroblastoma cell line SH—SY5Y; experiment: Toxicity measurement (LDH) in SH-SY5Y cells; format: cell-based; settings: 24 hours exposure
Experimental: The cytotoxicity effect of the molecules was tested in the human neuroblastoma cell line SH—SY5Y. These cells were cultured in 96-well plates in minimum essential medium, Han's F12 medium, supplemented with 10% fetal bovine serum, 1% glutamine and 1% penicillin/streptomycin, and grown in. a 5% CO2 humidified incubator at 37° C.
The cells were plated at 10^4 cells for each well, at least, 48 hours before the toxicity measure. Cells were exposed for 24 hours to the compounds at different concentrations (from 10^−5 to 10^−9), quantitative assessment of cell death was made by measurement of the intracellular enzyme lactate dehydrogenase (LDH) (citotoxicity detection kit, Roche). The cuantity of LDH was evaluated in a microplate reader Anthos 2010, at 492 and 620 nm. Controls were taken as 100% viability.

[5] = system: SH—SY5Y cells exposed to β-amyloid fragment 25-35; experiment: Effects on β-amyloid toxicity (fragment 25-35, LDH viability); format: cell-based, human; settings: 1 hour pretreatment, Aβ 25-35 at 200 μM, 24 hours
Experimental: Effects on β-Amiloid Toxicity
We have tested if some of these molecules interfere with amyloid peptide toxicity. Cells SH—SY5Y were cultured in 96-well plates as toxicity experiments. Cells were pretreated for 1 hour with the compounds at different concentrations (from 10^−5 to 10^−9), immediately neuronal death is induced adding synthetic peptide β-amyloid, fragment 25-35 (A25-35) at 200 μM. 24 hours later cell viability was assessed with the LDH assay; results are reported relative to untreated wells.

BuChE from human serum = target: T7, BuChE from human serum (Homo sapiens, UniProt P06276); experiment: Butyrylcholinesterase (BuChE) inhibition (from human serum); format: biochemical; settings: human serum BuChE, 30° C., 10 min preincubation; read-out: IC50 BuChE
T7 construct: The assay solution consisted of 0.01 units BuChE from human serum; from tissue; host or cells: human serum
Experimental: Butyrylcholinetersae (BuChE) Inhibition (from Human Serum)
BuChE inhibitory activity was evaluated at 30° C. by the colorimetric method reported by Ellman (Ellman, G. L.; Courtney, K. D.; Andres, B.; Featherstone, R. M. Biochem. Pharmacol. 1961, 7, 88-95]. The assay solution consisted of 0.01 units BuChE from human serum, 0.1 M sodium phosphate buffer pH 8, 0.3 mM 5,5′-dithiobis (2-nitrobenzoic acid) (DTNB, Ellman's reagent), and 0.5 mM butylthiocholine iodide as the substrate of the enzymatic reaction. Enzyme activity was determined by measuring the absorbance at 405 nm during 5 minutes with a microplate reader Digiscan 340T. The tested compounds were preincubated with the enzyme for 10 minutes at 30° C. The reaction rate was calculated with, at least, triplicate measurements.

[6] = target: T6, AChE from bovine erythrocytes; experiment: AChE inhibition (from bovine erythrocytes), Ellman method at 25° C., Fluostar reader; format: biochemical; settings: 0.5 mM acetylthiocholine iodide, pH 8, 10 min preincubation
Experimental: AChE Inhibition (from Bovine Erythocytes)
AChE inhibitory activity was evaluated at 25° C. by the colorimetric method reported by Ellman (Ellman, G. L.; Courtney, K. D.; Andres, B.; Featherstone, R. M. Biochem. Pharmacol. 1961, 7, 88-95). The assay solution consisted on 0.02 unit/ml AChE from bovine erythrocytes, 0.1 M sodium phosphate buffer pH 8, 0.3 mM 5,5′-dithiobis (2-nitrobenzoic […]), and 0.5 mM acetylthiocholine iodide as the substrate of the enzymatic reaction. Enzyme activity was determined by measuring the absorbance at 405 nm during 10 minutes with a Fluostar optima plate reader (BMG). The tested compounds were preincubated with the enzyme for 10 minutes at 30° C.

T7 sequence (P06276 29-602): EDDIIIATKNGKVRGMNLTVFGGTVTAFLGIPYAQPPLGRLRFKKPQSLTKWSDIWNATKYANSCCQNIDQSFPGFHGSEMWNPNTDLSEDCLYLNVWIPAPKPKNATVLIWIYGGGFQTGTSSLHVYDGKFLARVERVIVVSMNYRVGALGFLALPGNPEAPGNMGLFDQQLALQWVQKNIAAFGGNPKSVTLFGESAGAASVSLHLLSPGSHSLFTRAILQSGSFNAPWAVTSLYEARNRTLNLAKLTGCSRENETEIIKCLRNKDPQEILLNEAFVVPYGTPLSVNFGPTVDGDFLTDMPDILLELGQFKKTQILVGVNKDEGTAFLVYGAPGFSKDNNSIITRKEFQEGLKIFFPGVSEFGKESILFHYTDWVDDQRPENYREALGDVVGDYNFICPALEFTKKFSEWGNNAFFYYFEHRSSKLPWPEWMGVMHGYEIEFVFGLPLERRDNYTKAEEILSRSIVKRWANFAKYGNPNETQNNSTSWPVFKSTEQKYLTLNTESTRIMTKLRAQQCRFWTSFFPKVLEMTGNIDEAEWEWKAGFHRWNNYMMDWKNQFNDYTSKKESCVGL
Chain of AChE peripheral site (P22303 32-614): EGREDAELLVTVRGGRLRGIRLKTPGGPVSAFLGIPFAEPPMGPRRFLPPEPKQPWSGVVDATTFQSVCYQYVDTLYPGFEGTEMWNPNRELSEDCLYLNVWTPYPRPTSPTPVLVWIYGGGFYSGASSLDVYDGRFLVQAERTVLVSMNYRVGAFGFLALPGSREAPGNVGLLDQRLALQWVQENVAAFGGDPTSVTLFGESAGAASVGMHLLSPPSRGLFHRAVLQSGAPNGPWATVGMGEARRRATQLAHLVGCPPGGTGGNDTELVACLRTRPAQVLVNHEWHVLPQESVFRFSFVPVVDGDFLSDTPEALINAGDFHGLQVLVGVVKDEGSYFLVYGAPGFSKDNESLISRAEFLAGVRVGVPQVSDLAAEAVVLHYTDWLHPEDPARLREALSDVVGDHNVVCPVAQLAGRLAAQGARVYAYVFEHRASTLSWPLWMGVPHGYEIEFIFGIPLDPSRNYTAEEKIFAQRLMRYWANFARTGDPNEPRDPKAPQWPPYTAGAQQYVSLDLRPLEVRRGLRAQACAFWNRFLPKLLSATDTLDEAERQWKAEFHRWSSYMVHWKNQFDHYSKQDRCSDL
T1 sequence (P22303 32-617 isoform P22303-2 limits assumed): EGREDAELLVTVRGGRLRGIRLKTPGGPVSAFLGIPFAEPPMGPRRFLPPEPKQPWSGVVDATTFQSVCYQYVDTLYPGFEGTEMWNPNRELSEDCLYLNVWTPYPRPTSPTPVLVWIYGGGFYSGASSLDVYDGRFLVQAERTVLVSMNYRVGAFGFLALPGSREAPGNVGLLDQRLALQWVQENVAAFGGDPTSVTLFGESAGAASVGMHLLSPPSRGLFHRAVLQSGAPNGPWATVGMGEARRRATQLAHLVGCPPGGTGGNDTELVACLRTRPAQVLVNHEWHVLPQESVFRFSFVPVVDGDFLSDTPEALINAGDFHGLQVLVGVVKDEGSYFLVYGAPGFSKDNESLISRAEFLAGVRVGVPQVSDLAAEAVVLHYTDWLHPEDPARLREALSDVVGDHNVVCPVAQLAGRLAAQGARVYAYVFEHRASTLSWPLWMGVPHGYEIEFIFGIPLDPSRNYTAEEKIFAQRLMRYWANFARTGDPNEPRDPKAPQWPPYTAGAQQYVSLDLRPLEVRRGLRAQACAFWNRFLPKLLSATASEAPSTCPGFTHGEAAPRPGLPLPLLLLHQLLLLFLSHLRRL
T4 sequence (P22303 32-614): as the sequence (P22303 32-614) above
T3 sequence (P22303 32-614): as above
T2 sequence (P22303 32-614, one chain of several): as the sequence (P22303 32-614) above

Compound: COc1cc2c(cc1OC)C(=O)C(CNCCCCCCCNc1c3c(nc4ccccc14)CCCC3)C2 (stereo not shown) [Compound 1, 5,6-Dimethoxy-2-{[7-(1,2,3,4-tetrahydro-acridin-9-ylamino)-heptylamino]-methyl}-indan-1-one]
- IC50 [1]: 25 nM
- reduction of the β-amyloid-AChE complex aggregation (β-amyloid-AChE complex): 18.7%
- IC50 (AChE from SK—N—SH cells): 109 nM
- IC50 (AChE from SH—SY5Y cells): 4350 nM
- IC50 (AChE from N2A cells): 209 nM

Compound: O=C1c2ccccc2C(=O)N1CCCCCCCNc1c2ccccc2nc2ccccc12 [Compound 7, 2-[7-(Acridin-9-ylamino)-heptyl]-isoindole-1,3-dione]
- Calcium channel blockade [2]: 10 µM
- IC50 [3]: 1500 nM
- Propidium competition (AChE peripheral site): 100 µM
- Toxicity [4]: >100 µM
- inhibition of Aβ(25-35) toxicity [5]: 1 µM
- IC50 (BuChE from human serum): 700 nM

Compound: CCCn1s/c(=N\CCCCCCCNc2c3c(nc4ccccc24)CCCC3)n(CC)c1=O [Compound 16, 4-Ethyl-2-propyl-5-[7-(1,2,3,4-tetrahydro-acridin-9-ylamino)-heptyl-imino]-[1,2,4]thiadiazolidin-3-one]
- IC50 [6]: 203 nM
- IC50 [3]: 450 nM
- Propidium competition (AChE peripheral site): >100 µM
- Toxicity [4]: 50 µM
- IC50 (BuChE from human serum): 20 nM
